According to patent US7049444B2, “3-azabicyclo[3.1.0]hexane derivatives useful in therapy” (Pfizer Inc., priority 1998, dated 2006):
Structures can show the parent of a compound that is named as a salt.

Row | Compound | melting point [°C]
1 | CC1(c2cccc(NS(C)(=O)=O)c2)C2CN(CCc3ccc(C(F)(F)F)cc3)CC21 (stereo not drawn) | 159 to 161
2 | CC1(c2cccc(NS(C)(=O)=O)c2)C2CN(CCCc3ccccc3)CC21 (stereo not drawn) (as salt: benzenesulfonate) | 166 to 168
3 | CC1(c2cccc(NS(C)(=O)=O)c2)C2CN(CCCc3ccccc3)CC21 (stereo not drawn) (as salt: hydrochloride) | 212 to 214

The remaining lines, values ahead:

Row | melting point [°C] | Compound
4 | 162 to 164 | CC1(c2cccc(NS(C)(=O)=O)c2)C2CN(CCCc3ccccc3)CC21 (stereo not drawn) (as salt: tartrate)
5 | 182 to 184 | CC1(c2cccc(NS(C)(=O)=O)c2)C2CN(CCCc3ccccc3)CC21 (stereo not drawn) (as salt: toluenesulfonate)
6 | 117 to 118 | CC1(c2cccc(NS(C)(=O)=O)c2)C2CN(Cc3ccccc3)CC21 (stereo not drawn) [Example 22, N-[3-(3-Benzyl-6-methyl-3-azabicyclo[3.1.0]hex-6-yl)phenyl]methanesulfonamide]
